In patent publication US7067619B2, “Integrin-binding peptides” (La Jolla Cancer Research Foundation, priority 1993, dated 2006):
Bridge positions count the residues as written; N and C are the ends. Ends that are not written are not given here. Peptide text beside a SMILES is read from it.

What was measured:
αvβ5 integrin = αvβ5 integrin (Homo sapiens, UniProt P06756+P18084); assay: Inhibition of peptide-displaying phage binding to αvβ5 integrin by synthetic peptides; parameters: The αvβ3, αvβ5 and α5β1 integrins were isolated from human placental extracts; from tissue; host or cells: human placenta; details: more potent than *CRGDC*; FIG. 10
αvβ5 integrin, sequence (P06756 31-889 limits assumed): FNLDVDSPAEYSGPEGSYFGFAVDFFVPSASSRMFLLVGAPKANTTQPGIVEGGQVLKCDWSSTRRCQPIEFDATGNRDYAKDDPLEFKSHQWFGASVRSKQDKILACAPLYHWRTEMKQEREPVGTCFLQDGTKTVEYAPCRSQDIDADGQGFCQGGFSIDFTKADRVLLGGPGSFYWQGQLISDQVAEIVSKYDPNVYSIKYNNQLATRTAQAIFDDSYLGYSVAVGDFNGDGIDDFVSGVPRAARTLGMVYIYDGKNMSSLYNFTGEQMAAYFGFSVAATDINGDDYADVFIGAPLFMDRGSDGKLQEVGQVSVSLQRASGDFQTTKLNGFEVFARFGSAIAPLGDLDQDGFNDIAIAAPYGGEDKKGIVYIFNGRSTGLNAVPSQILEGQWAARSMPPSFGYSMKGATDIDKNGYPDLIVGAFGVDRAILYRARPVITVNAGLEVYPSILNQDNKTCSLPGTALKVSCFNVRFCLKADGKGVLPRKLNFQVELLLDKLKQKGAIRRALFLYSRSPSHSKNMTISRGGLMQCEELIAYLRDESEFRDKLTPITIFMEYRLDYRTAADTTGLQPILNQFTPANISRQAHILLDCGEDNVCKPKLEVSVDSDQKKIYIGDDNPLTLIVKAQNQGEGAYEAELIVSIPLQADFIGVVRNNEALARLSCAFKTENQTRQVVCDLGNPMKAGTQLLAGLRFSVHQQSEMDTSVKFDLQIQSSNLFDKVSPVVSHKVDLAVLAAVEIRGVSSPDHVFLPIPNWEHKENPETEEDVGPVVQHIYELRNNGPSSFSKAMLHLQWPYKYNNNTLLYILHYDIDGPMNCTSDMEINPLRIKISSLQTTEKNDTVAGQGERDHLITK
αvβ5 integrin, sequence (P06756 891-1048 partner limits assumed): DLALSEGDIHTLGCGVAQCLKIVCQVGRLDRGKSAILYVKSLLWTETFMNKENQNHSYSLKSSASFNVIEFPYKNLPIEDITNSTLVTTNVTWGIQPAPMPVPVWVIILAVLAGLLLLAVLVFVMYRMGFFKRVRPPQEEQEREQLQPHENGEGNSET
αvβ5 integrin, sequence (P18084 24-799): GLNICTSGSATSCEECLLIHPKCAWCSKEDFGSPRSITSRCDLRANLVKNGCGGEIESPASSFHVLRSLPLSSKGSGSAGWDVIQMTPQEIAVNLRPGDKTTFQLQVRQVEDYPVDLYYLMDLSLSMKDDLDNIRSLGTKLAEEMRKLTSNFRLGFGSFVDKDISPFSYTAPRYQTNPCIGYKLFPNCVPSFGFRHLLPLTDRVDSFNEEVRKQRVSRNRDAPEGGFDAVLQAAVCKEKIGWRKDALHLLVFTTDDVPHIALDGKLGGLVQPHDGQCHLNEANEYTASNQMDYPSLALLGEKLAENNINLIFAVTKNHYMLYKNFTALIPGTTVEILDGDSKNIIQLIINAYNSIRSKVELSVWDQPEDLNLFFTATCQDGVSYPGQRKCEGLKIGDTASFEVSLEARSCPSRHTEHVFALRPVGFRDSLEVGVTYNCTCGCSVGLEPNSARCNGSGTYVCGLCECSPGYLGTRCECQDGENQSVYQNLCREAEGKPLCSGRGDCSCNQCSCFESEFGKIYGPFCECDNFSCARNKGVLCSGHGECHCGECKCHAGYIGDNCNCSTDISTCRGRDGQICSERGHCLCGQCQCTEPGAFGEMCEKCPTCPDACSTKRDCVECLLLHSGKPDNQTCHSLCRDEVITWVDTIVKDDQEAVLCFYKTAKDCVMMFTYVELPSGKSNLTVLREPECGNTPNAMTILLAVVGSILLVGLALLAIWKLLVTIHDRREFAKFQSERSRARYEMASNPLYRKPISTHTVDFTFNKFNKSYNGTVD
Experimental: Phage containing the […] [SEQ ID NO:10] sequence were incubated for 1 hour in integrin-coated wells in the presence of the competing peptides or dimethyl sulfoxide solvent as a control. The bound phage were determined as described herein.
In addition, most of the phage-binding activity in the αvβ3 preparation was captured into microliter wells coated with antibodies against the αv or β3 subunits as described previously (Koivunen et al., J. Biol. Chem., 268:20205–10 (1993). The αIIbβ3 integrin was isolated from outdated platelets (Pytela et al., Science, 231:1559–1562 (1986)).
Binding of individual cloned phage to integrins was studied in microliter wells as described in Koivunen et al., J. Cell. Biol., 124:373–380 (1994). Phage binding to α5β1 and αvβ3 were assayed in TBS buffer containing 1% BSA and 1 mM MnCl2 and binding to αvβ5 in the presence of 1 mM CaCl2. Phage that were bound were determined by their ability to infect F-pilus positive K91kan bacteria. Bacteria were grown overnight in microliter wells in the presence of tetracycline and the absorbance indicative of bacterial growth was read at 600 nm with an ELISA plate reader.

[1] = Precipitation behaviour of the peptide in solution; assay type: physicochemical; details: neutral pH
α5β1 integrin = target: T1, α5β1 integrin (Mus musculus, UniProt P09055+P11688); assay: Inhibition of attachment of NIH 3T3 cells to fibronectin; assay type: cell-based; details: mouse NIH 3T3 cells
T1 construct: CHO cells C11 and NIH 3T3 cells express the endogenous Chinese hamster and mouse α5β1 integrins, respectively; endogenous in cells; host or cells: NIH 3T3 cells
T1 sequence (P11688 45-898 limits assumed): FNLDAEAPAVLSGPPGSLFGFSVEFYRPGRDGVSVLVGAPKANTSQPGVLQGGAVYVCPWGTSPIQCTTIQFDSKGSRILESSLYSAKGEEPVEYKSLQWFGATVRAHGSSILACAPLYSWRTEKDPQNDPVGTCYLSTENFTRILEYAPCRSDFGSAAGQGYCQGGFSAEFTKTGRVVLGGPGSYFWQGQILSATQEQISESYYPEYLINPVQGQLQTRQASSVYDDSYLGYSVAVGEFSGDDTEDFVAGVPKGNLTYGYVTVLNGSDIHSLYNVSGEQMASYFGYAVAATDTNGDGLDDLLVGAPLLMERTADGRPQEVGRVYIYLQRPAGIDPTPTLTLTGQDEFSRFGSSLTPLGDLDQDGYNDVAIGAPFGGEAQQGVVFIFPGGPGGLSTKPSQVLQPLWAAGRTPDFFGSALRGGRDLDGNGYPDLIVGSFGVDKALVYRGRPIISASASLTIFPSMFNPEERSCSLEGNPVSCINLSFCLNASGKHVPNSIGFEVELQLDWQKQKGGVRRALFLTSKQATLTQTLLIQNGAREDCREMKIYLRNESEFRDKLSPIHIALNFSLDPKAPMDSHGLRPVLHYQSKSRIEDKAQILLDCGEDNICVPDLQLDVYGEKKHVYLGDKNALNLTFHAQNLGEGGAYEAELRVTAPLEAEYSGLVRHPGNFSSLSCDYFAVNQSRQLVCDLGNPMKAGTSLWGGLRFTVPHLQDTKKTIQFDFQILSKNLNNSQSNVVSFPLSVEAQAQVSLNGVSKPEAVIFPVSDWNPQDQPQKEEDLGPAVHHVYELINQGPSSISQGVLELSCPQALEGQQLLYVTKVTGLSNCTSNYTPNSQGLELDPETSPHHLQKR
T1 sequence (P11688 899-1053 partner limits assumed): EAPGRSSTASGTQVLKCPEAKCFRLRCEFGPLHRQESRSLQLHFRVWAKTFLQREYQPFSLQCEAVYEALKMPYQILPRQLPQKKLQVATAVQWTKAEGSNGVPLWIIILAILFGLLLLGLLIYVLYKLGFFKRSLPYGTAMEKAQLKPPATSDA
T1 sequence (P09055 21-798): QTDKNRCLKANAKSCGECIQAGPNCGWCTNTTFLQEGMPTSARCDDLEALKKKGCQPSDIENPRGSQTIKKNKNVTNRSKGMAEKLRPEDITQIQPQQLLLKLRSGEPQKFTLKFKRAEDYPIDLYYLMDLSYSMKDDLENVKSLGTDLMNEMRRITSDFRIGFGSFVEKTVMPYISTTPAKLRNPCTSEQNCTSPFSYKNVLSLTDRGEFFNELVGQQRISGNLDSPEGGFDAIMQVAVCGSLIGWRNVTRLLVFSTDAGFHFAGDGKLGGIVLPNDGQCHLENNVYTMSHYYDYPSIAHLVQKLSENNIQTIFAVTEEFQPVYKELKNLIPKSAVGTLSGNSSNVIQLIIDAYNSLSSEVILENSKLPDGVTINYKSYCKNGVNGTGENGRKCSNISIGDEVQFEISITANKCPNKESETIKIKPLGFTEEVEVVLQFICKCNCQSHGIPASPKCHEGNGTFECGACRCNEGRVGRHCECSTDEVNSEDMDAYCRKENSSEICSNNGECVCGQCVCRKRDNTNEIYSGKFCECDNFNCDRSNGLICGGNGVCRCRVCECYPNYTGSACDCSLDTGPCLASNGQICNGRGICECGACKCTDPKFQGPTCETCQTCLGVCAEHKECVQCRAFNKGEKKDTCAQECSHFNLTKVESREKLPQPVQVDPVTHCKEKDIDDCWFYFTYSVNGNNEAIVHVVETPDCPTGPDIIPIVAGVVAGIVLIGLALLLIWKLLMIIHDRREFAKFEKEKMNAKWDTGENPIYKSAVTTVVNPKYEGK
Description: Cell lines expressing different integrins were used to examine peptide inhibition of integrin function. A human melanoma cell line, C8161, a fibroblast cell line, WI-38, and an osteosarcoma cell line, MG-63 (described by Seftor et al., Canc. Res., 53:3411–3415 (1993); Vogel et al., J. Biol. Chem., 265:5934–5937 (1990); and Pytela et al. (1985), supra, respectively, each of which is incorporated herein by reference) attach to fibronectin through α5β1 integrin, as does B2/α27, a CHO cell line transfected with human α5. B2/C1, the control parental CHO line (Bauer et al., J. Cell. Biol. 116:477–487 (1992), which is incorporated herein by reference), attaches via […]. CHO cells C11 and NIH 3T3 cells express the endogenous Chinese hamster and mouse α5β1 integrins, respectively. The human melanoma cells, A375-M, attach to fibronectin through both α5β1 and α4β1 integrins (Mould et al., J. Biol. Chem. 265:4020–4024 (1990), which is incorporated herein by reference). CHO cell line B2/v7 express the αvβ1 integrin (Zhang et al., J. Cell. Biol. 122:235–242 (1993), which is incorporated herein by reference). […]
Cell lines expressing fibronectin-binding integrins were used to determine peptide activities against these integrins in the cell attachment assay described by Ruoslahti et al., Meth. […] Bound cells were quantitated by staining with 0.1% amido black.

C[C@H](N)C(=O)N[C@H]1CSSC[C@@H](C(=O)NCC(=O)O)NC(=O)[C@H](Cc2ccccc2)NC(=O)[C@@H]2CSSC[C@H](NC(=O)[C@H](CC(=O)O)NC1=O)C(=O)N[C@@H](CCCNC(=N)N)C(=O)NCC(=O)N[C@@H](CC(=O)O)C(=O)N2 (H-ACDCRGDCFCG-OH; disulfide 2-10, 4-8)
potency in inhibiting binding of RGD-containing phage to αvβ5 relative to *CRGDC* (αvβ5 integrin): 10 fold

A*CPSRLDSPC*G (ACPSRLDSPCG; disulfide 2-10 (inferred))
precipitation of the peptide [1]: tendency of the peptide precipitate at neutral pH

GACRRETAWACGA
blocking of attachment of NIH 3T3 cells to fibronectin (α5β1 integrin): could not block
